From patent US9738634B2, “Heterocyclic amide compound and herbicide” (SYNGENTA PARTICIPATIONS AG, priority 2013, dated 2017)

How the values were obtained:
Type in all cases: in vivo
Conditions in all cases: treatment dosage 320 g/ha
barnyard grass [1] = assay: Test Example 3: weedkilling efficacy through soil treatment; F: barnyard grass
Outline: (§1)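 Crop and weed responses were judged three weeks after a uniform surface spray of the water-diluted emulsion at the given g/ha rate. Seeds sat beneath about 1.5 cm of sterilized diluvial soil, and boxes stood in a greenhouse at 25 to 30° C.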

soybean [2] = assay: Test Example 4: foliar treatment, effect on crop; d: soybean
Outline: (§2)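 Seeds are spot-sown into sterilized diluvial soil and covered with about 1.5 cm of soil. After 14 days' greenhouse growth at 25 to 30° C, plants are sprayed on stems and leaves with diluted emulsion at the stated g/ha rate, then scored at 3 weeks.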

wheat [3] = assay: Test Example 3: soil treatment, effect on crop; e: wheat
Outline: as §1

birds-eye speedwell [4] = assay: Test Example 3: weedkilling efficacy through soil treatment; p: birds-eye speedwell
Outline: as §1

rapeseed [5] = assay: Test Example 3: soil treatment, effect on crop; g: rapeseed
Outline: as §1

oval-leafed pondweed [6] = assay: Test Example 2: weedkilling efficacy, growth period weed treatment in the submerged state; C: oval-leafed pondweed
Outline: (§3)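 First, alluvial soil in pots is flooded to 4 cm and mixed seed is sown. Next, plants grow in a greenhouse at 25 to 30° C until the 1-2 leaf stage. Then diluted emulsion is applied onto the water surface at the given g/ha rate, and injury is assessed after 3 weeks.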

wheat [7] = assay: Test Example 4: foliar treatment, effect on crop; e: wheat
Outline: as §2

transplanted rice = assay: Test Example 1: preemergent weed treatment in the submerged state, effect on crop; a: transplanted rice
Outline: (§4)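 Emulsion diluted with water to the specified per-hectare dosage is applied onto flood water (4 cm) over alluvial soil on the sowing day, with barnyard grass, bulrush and pondweed seeded and rice (2.5-leaf) transplanted; plants grow at 25–30 °C and are rated at 3 weeks.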

green foxtail [8] = assay: Test Example 4: weedkilling efficacy by foliar treatment; E: green foxtail
Outline: as §2

bulrush [9] = assay: Test Example 2: weedkilling efficacy, growth period weed treatment in the submerged state; B: bulrush
Outline: as §3

fig-leafed goosefoot = assay: Test Example 3: weedkilling efficacy through soil treatment; M: fig-leafed goosefoot
Outline: as §1

barnyard grass [10] = assay: Test Example 4: weedkilling efficacy by foliar treatment; F: barnyard grass
Outline: as §2

rapeseed [11] = assay: Test Example 4: foliar treatment, effect on crop; g: rapeseed
Outline: as §2

beet [12] = assay: Test Example 4: foliar treatment, effect on crop; f: beet
Outline: as §2

crabgrass [13] = assay: Test Example 4: weedkilling efficacy by foliar treatment; D: crabgrass
Outline: as §2

Indian mallow [14] = assay: Test Example 3: weedkilling efficacy through soil treatment; K: Indian mallow
Outline: as §1

directly sown rice [15] = assay: Test Example 4: foliar treatment, effect on crop; b: directly sown rice
Outline: as §2

directly sown rice [16] = assay: Test Example 3: soil treatment, effect on crop; b: directly sown rice
Outline: as §1

soybean [17] = assay: Test Example 3: soil treatment, effect on crop; d: soybean
Outline: as §1

black-grass [18] = assay: Test Example 3: weedkilling efficacy through soil treatment; H: black-grass
Outline: as §1

birds-eye speedwell [19] = assay: Test Example 4: weedkilling efficacy by foliar treatment; p: birds-eye speedwell
Outline: as §2

oval-leafed pondweed [20] = assay: Test Example 1: weedkilling efficacy, preemergent weed treatment in the submerged state; C: oval-leafed pondweed
Outline: as §4

common wind-grass [21] = assay: Test Example 4: weedkilling efficacy by foliar treatment; J: common wind-grass
Outline: as §2

barnyard grass [22] = assay: Test Example 1: weedkilling efficacy, preemergent weed treatment in the submerged state; A: barnyard grass
Outline: as §4

crabgrass [23] = assay: Test Example 3: weedkilling efficacy through soil treatment; D: crabgrass
Outline: as §1

common wind-grass [24] = assay: Test Example 3: weedkilling efficacy through soil treatment; J: common wind-grass
Outline: as §1

chickweed [25] = assay: Test Example 4: weedkilling efficacy by foliar treatment; N: chickweed
Outline: as §2

beet [26] = assay: Test Example 3: soil treatment, effect on crop; f: beet
Outline: as §1

redroot pigweed [27] = assay: Test Example 4: weedkilling efficacy by foliar treatment; L: redroot pigweed
Outline: as §2

Indian mallow [28] = assay: Test Example 4: weedkilling efficacy by foliar treatment; K: Indian mallow
Outline: as §2

Italian ryegrass [29] = assay: Test Example 4: weedkilling efficacy by foliar treatment; I: Italian ryegrass
Outline: as §2

catchweed [30] = assay: Test Example 4: weedkilling efficacy by foliar treatment; O: catchweed
Outline: as §2

wild oat [31] = assay: Test Example 4: weedkilling efficacy by foliar treatment; G: wild oat
Outline: as §2

chickweed [32] = assay: Test Example 3: weedkilling efficacy through soil treatment; N: chickweed
Outline: as §1

Italian ryegrass [33] = assay: Test Example 3: weedkilling efficacy through soil treatment; I: Italian ryegrass
Outline: as §1

catchweed [34] = assay: Test Example 3: weedkilling efficacy through soil treatment; O: catchweed
Outline: as §1

bulrush [35] = assay: Test Example 1: weedkilling efficacy, preemergent weed treatment in the submerged state; B: bulrush
Outline: as §4

redroot pigweed [36] = assay: Test Example 3: weedkilling efficacy through soil treatment; L: redroot pigweed
Outline: as §1

green foxtail [37] = assay: Test Example 3: weedkilling efficacy through soil treatment; E: green foxtail
Outline: as §1

wild oat [38] = assay: Test Example 3: weedkilling efficacy through soil treatment; G: wild oat
Outline: as §1

corn [39] = assay: Test Example 4: foliar treatment, effect on crop; c: corn
Outline: as §2

corn [40] = assay: Test Example 3: soil treatment, effect on crop; c: corn
Outline: as §1

barnyard grass [41] = assay: Test Example 2: weedkilling efficacy, growth period weed treatment in the submerged state; A: barnyard grass
Outline: as §3

black-grass [42] = assay: Test Example 4: weedkilling efficacy by foliar treatment; H: black-grass
Outline: as §2

SMILES: CC1=C(c2ccccc2)C(=O)N(C(C)(C)C(=O)Nc2cccc(CF)n2)CO1 [B-2-56]
- F (barnyard grass) weedkilling efficacy grade (barnyard grass [1]): 5 (weed kill ratio 90% or more, (practically complete withering))
- d (soybean) effect on crop grade (soybean [2]): 4 (weed kill ratio 70% or more, less than 90%)
- e (wheat) effect on crop grade (wheat [3]): 1 (weed kill ratio 5% or more, less than 20%)
- P (birds-eye speedwell) weedkilling efficacy grade (birds-eye speedwell [4]): 5 (weed kill ratio 90% or more, (practically complete withering))
- g (rapeseed) effect on crop grade (rapeseed [5]): 1 (weed kill ratio 5% or more, less than 20%)
- C (oval-leafed pondweed) weedkilling efficacy grade (oval-leafed pondweed [6]): 5 (weed kill ratio 90% or more, (practically complete withering))
- e (wheat) effect on crop grade (wheat [7]): 3 (weed kill ratio 40% or more, less than 70%)
- a (transplanted rice) effect on crop grade (transplanted rice): 1 (weed kill ratio 5% or more, less than 20%)
- E (green foxtail) weedkilling efficacy grade (green foxtail [8]): 5 (weed kill ratio 90% or more, (practically complete withering))
- B (bulrush) weedkilling efficacy grade (bulrush [9]): 5 (weed kill ratio 90% or more, (practically complete withering))
- M (fig-leafed goosefoot) weedkilling efficacy grade (fig-leafed goosefoot): 4 (weed kill ratio 70% or more, less than 90%)
- F (barnyard grass) weedkilling efficacy grade (barnyard grass [10]): 4 (weed kill ratio 70% or more, less than 90%)
- g (rapeseed) effect on crop grade (rapeseed [11]): 3 (weed kill ratio 40% or more, less than 70%)
- f (beet) effect on crop grade (beet [12]): 3 (weed kill ratio 40% or more, less than 70%)
- D (crabgrass) weedkilling efficacy grade (crabgrass [13]): 5 (weed kill ratio 90% or more, (practically complete withering))
- K (Indian mallow) weedkilling efficacy grade (Indian mallow [14]): 0 (weed kill ratio 5% or less (practically no effect))
- b (directly sown rice) effect on crop grade (directly sown rice [15]): 4 (weed kill ratio 70% or more, less than 90%)
- b (directly sown rice) effect on crop grade (directly sown rice [16]): 2 (weed kill ratio 20% or more, less than 40%)
- d (soybean) effect on crop grade (soybean [17]): 0 (weed kill ratio 5% or less (practically no effect))
- H (black-grass) weedkilling efficacy grade (black-grass [18]): 5 (weed kill ratio 90% or more, (practically complete withering))
- P (birds-eye speedwell) weedkilling efficacy grade (birds-eye speedwell [19]): 4 (weed kill ratio 70% or more, less than 90%)
- C (oval-leafed pondweed) weedkilling efficacy grade (oval-leafed pondweed [20]): 5 (weed kill ratio 90% or more, (practically complete withering))
- J (common wind-grass) weedkilling efficacy grade (common wind-grass [21]): 5 (weed kill ratio 90% or more, (practically complete withering))
- A (barnyard grass) weedkilling efficacy grade (barnyard grass [22]): 5 (weed kill ratio 90% or more, (practically complete withering))
- D (crabgrass) weedkilling efficacy grade (crabgrass [23]): 5 (weed kill ratio 90% or more, (practically complete withering))
- J (common wind-grass) weedkilling efficacy grade (common wind-grass [24]): 5 (weed kill ratio 90% or more, (practically complete withering))
- N (chickweed) weedkilling efficacy grade (chickweed [25]): 4 (weed kill ratio 70% or more, less than 90%)
- f (beet) effect on crop grade (beet [26]): 2 (weed kill ratio 20% or more, less than 40%)
- L (redroot pigweed) weedkilling efficacy grade (redroot pigweed [27]): 3 (weed kill ratio 40% or more, less than 70%)
- K (Indian mallow) weedkilling efficacy grade (Indian mallow [28]): 0 (weed kill ratio 5% or less (practically no effect))
- I (Italian ryegrass) weedkilling efficacy grade (Italian ryegrass [29]): 5 (weed kill ratio 90% or more, (practically complete withering))
- O (catchweed) weedkilling efficacy grade (catchweed [30]): 4 (weed kill ratio 70% or more, less than 90%)
- G (wild oat) weedkilling efficacy grade (wild oat [31]): 5 (weed kill ratio 90% or more, (practically complete withering))
- N (chickweed) weedkilling efficacy grade (chickweed [32]): 4 (weed kill ratio 70% or more, less than 90%)
- I (Italian ryegrass) weedkilling efficacy grade (Italian ryegrass [33]): 5 (weed kill ratio 90% or more, (practically complete withering))
- O (catchweed) weedkilling efficacy grade (catchweed [34]): 5 (weed kill ratio 90% or more, (practically complete withering))
- B (bulrush) weedkilling efficacy grade (bulrush [35]): 5 (weed kill ratio 90% or more, (practically complete withering))
- L (redroot pigweed) weedkilling efficacy grade (redroot pigweed [36]): 2 (weed kill ratio 20% or more, less than 40%)
- E (green foxtail) weedkilling efficacy grade (green foxtail [37]): 5 (weed kill ratio 90% or more, (practically complete withering))
- G (wild oat) weedkilling efficacy grade (wild oat [38]): 3 (weed kill ratio 40% or more, less than 70%)
- c (corn) effect on crop grade (corn [39]): 5 (weed kill ratio 90% or more, (practically complete withering))
- c (corn) effect on crop grade (corn [40]): 1 (weed kill ratio 5% or more, less than 20%)
- A (barnyard grass) weedkilling efficacy grade (barnyard grass [41]): 5 (weed kill ratio 90% or more, (practically complete withering))
- H (black-grass) weedkilling efficacy grade (black-grass [42]): 4 (weed kill ratio 70% or more, less than 90%)
